In PMC6154636, “Using UPLC-MS/MS for Characterization of Active Components in Extracts of Yupingfeng and Application to a Comparative Pharmacokinetic Study in Rat Plasma after Oral Administration” (Molecules : A Journal of Synthetic Chemistry and Natural …, 2017):
Like-named read-outs stand apart in the source and are kept apart here.

Tests used:
[1] = Pharmacokinetic study in rats after oral administration of mix standard solution (UPLC-QqQ-MS of plasma); format: in vivo, Sprague-Dawley rats
Procedure: Then, 300 μL acetonitrile for protein precipitation were added. For the incurred samples, 10 µL of methanol (volume of the corresponding standard solution for calibration curve) and 90 μL of samples with 300 μL acetonitrile were mixed, the mixture was then vortex-extracted for 2 min, and centrifuged for 10 min at 15,000 rpm (4 °C). The supernatant was transferred to a new tube and evaporated under a gentle stream of nitrogen to dryness. The residue was reconstituted with 80 μL of initial mobile phase, vortex-mixed for 1 min and centrifuged at 15,000 rpm for 5 min.
The Chromatographic UPLC-QqQ-MS procedure of pharmacokinetics study was performed using ACQUITY UPLC (Waters, Milford, MA, USA) and SCIEX SelexION Triple Quad™ 5500 System (AB Sciex, Framingham, MA, USA) equipped with a heated electrospray ionization source (ESI) interface, separation was achieved using a Waters BEH C18 column (2.1 mm × 100 mm, 1.7 μm) which was protected by an online filter, the mobile phase was at a flow rate of 0.5 mL/min, consisted of aqueous solvent A: water–acetic acid (1000:1, v/v) and organic phase solvent B: acetonitrile. A 10-min binary gradient elution was performed for the separation, and the consecutive program was as follows: an isocratic elution of 5% solvent B to equilibrate the column, then followed by a linear gradient elution: 0–2.5 min, 5–27% B; 2.5–3.1 min, 27–36% B; 3.1–4.1 min, 36–57% B; 4.1–4.8 min, 57–84% B; 4.8–5.8 min, 84–100% B; 5.8–7 min, 100–100% B; 7–8 min, 100–5% B; and the re-equilibration time of gradient elution was 2 min. The column and auto-sampler tray temperature were maintained constantly at 45 °C and 4 °C, respectively. The injection volume was 10 μL. The electrospray ionization source was operated in positive mode. Quantitation was performed by schedule multiple reactions monitoring (sMRM). In the positive mode, the tandem mass spectrometry (MS/MS) typical instrumental conditions were: ion spray voltage 5.5 kV, ion source gas 150 psi, ion source gas 250 psi, temperature 500 °C, and curtain gas 38 psi. Data acquisition and processing were performed using Analyst Software (AB Sciex, Corp., Framingham, MA, USA).
The developed UPLC-QqQ-MS method was applied to a pharmacokinetic study of seven analytes in rat plasma. Male healthy adult Sprague-Dawley rats (n = 6, 200 ± 20 g body weight) were supplied by Shanghai Jiao Tong University Laboratory Animal Centre (Shanghai, China). Animals were acclimatized in an environmental controlled breeding room with standard laboratory food and water for one week prior to the experiments. All the rats were fasted for 12 h, with free access to water prior to the experiments, animal welfare and experimental procedures conformed to guidance for the care and use of laboratory animals, similarly the ethical regulations of SJTU.
Then immediately centrifuged at 4000 rpm for 5 minutes, plasma was transferred into another via and stored at −80 °C until assay.
The plasma concentrations of seven analytes at different time points are described as the mean ± s.d. The concentration versus time curve was plotted. Compartmental model was chosen to calculate all the related pharmacokinetic parameters including Cmax (ng/mL), Tmax (h), AUC0−∞ (ng·h/mL), CL/F (L/h.kg), T1/2α (h) and T1/2β (h) were calculated by Kinetica4.4 software (Thermo Fisher Scientific™, Corp., Waltham, MA, USA), and performed with GraphPad 6 (GraphPad Software, Inc., La Jolla, CA, USA). We also use the area under the plasma concentration–time curve from zero to infinity (AUC0−∞) as the weighting factor to make an integrated pharmacokinetic curve. […]

[2] = Stability of the seven analytes in rat plasma (method validation); format: in vitro ADME; details: n = 6; for Short-Term RSD: auto-sampler vials for 24 h; for Freeze-Thaw RSD: three freeze–thaw cycles; for Long-Term RSD: −20 °C for 30 days
Procedure: Stability The short-term and long-term stability of seven analytes in rat plasma in auto-sampler vials for 24 h, at −20 °C for 30 days and after three freeze–thaw cycles was assessed, and also carried out in six replicates samples at three QC levels (low, medium and high).
Stability: The analytes would be considered stable when the accuracy bias was within ±15% of the nominal concentrations (or ±20% for LLOQ).

[3] = cited from earlier work
[4] = male, Sprague-Dawley, rat, in vivo, po, 10 mg/kg
[5] = high QC level (80.0 or 150 ng/mL)
[6] = low QC level (0.25, 0.50 or 1.50 ng/mL)
[7] = medium QC level (1.50, 3.50 or 15.0 ng/mL)
[8] = after oral administration (10 mg/kg)
[9] = male, Sprague-Dawley, rat, in vivo, po, 10 mg/kg, rats, oral 10 mg/kg mix standard in 0.5% CMC-Na, n = 6, Mean ± S.D., read-out: Tmax
[10] = male, Sprague-Dawley, rat, in vivo, Table 8, mean, after oral administration (10 mg/kg), read-out: AUC0−∞
[11] = male, Sprague-Dawley, rat, in vivo, rats, oral 10 mg/kg mix standard in 0.5% CMC-Na, n = 6, Mean ± S.D., compartmental model, read-out: Cmax
[12] = male, Sprague-Dawley, rat, in vivo, rats, oral 10 mg/kg mix standard in 0.5% CMC-Na, n = 6, Mean ± S.D., read-out: CL/F (converted)
[13] = male, Sprague-Dawley, rat, in vivo, rats, oral 10 mg/kg mix standard in 0.5% CMC-Na, n = 6, Mean ± S.D., read-out: T1/2β (converted)
[14] = rats, oral 10 mg/kg mix standard in 0.5% CMC-Na, n = 6, Mean ± S.D., 10 mg/kg

SMILES | AUC(0-inf) [1, 4] | CL/F [1, 4] | Cmax [1, 4] | T1/2α [1, 4] | Tmax [1, 4] | half-life [1, 4] | weighting coefficient ωj (AUC0−∞ of single analyte / total AUC0−∞ of analytes) [1, 4] | Short-Term RSD [2, 5] | Short-Term RSD [2, 6] | Short-Term RSD [2, 7] | Freeze-Thaw RSD [2, 5] | Freeze-Thaw RSD [2, 6] | Freeze-Thaw RSD [2, 7] | Long-Term RSD [2, 5] | Long-Term RSD [2, 6] | Long-Term RSD [2, 7] | weighting coefficient ωj (AUC0−∞ of single analyte / total AUC0−∞ of analytes) [1, 8] | Tmax [1, 9] | AUC(0-inf) [1, 10] | Cmax [1, 11] | other results
COc1c2c(cc3oc(C)cc(=O)c13)OC(C(C)(C)OC1OC(CO)C(O)C(O)C1O)C2 [4-O-beta-D-glucosyl-5-O-methylvisamminol] | 60.8 ng·h/mL | 2810 mL/min/kg | 50 ± 7.6 ng/mL | 0.16 ± 0.01 h | 0.2 ± 0.01 h | 2.4 ± 1.1 h | 0.085 | 1.02% | 3.89% | 1.35% | 8.53% | 2.40% | 1.40% | 2.41% | 3.99% | 7.52% | – | – | – | – | –
CC(C)(O)C1CCC(C)(C2C(O)CC3(C)C4CC(OC5OC(CO)C(O)C(O)C5O)C5C(C)(C)C(OC6OCC(O)C(O)C6O)CCC56CC46CCC23C)O1 (stereo not shown) [Astragaloside] | – | – | – | – | – | – | – | 1.45% | 7.06% | 1.06% | 11.51% | 3.65% | 3.20% | 2.80% | 3.36% | 8.08% | 0.269 | 2.8 ± 0.1 h | 191 ng·h/mL | 26.6 ± 4 ng/mL | CL/F [1, 12]: 832 mL/min/kg; half-life [1, 13]: 2.06 ± 0.04 h; T1/2α ([1]; rats, oral 10 mg/kg mix standard in 0.5% CMC-Na, n = 6, Mean ± S.D.): 1.98 ± 0.11 h; bioavailability ([3]; stated as a known characteristic, no reference given): low
C=C1CCC[C@]2(C)C[C@@H]3OC(=O)C(C)=C3C[C@@H]12 [Atractylenolide II] | 17.9 ng·h/mL | 9820 mL/min/kg | 8.4 ± 2.4 ng/mL | 0.04 ± 0.01 h | 0.1 ± 0.1 h | 4.1 ± 1.56 h | 0.025 | – | – | – | – | – | – | – | – | – | – | – | – | – | biliary excretion [3]: rapid; intestinal absorption [3]: poor
COc1ccc(-c2coc3cc(O)ccc3c2=O)cc1O [Calycosin] | 11.5 ng·h/mL | 8330 mL/min/kg | 6.3 ± 2.5 ng/mL | 0.27 ± 0.10 h | 0.3 ± 0.1 h | 1.09 ± 0.36 h | 0.016 | 4.38% | 4.18% | 2.20% | 12.92% | 8.29% | 6.08% | 12.67% | 4.13% | 10.35% | – | – | – | – | –
COc1ccc(-c2coc3cc(O)ccc3c2=O)cc1 [Formononetin] | – | – | – | – | – | – | – | 2.82% | 2.35% | 2.33% | 10.58% | 10.06% | 7.09% | 6.22% | 5.96% | 7.75% | 0.159 | 1.65 h | 113 ng·h/mL | 13.9 ± 4.2 ng/mL | CL/F [1, 12]: 1530 mL/min/kg; half-life [1, 13]: 4.1 ± 2.6 h; T1/2α [1, 14]: 1.77 ± 0.81 h; Tmax [1, 14]: 1.6 ± 0.9 h; T1/2α ([1]; rats, oral 10 mg/kg mix standard in 0.5% CMC-Na, n = 6, Mean ± S.D., listed as formononetin, 10 mg/kg): 1.77 h
Cc1cc(=O)c2c(O)c3c(cc2o1)OC(C)(C)[C@@H](O[C@@H]1O[C@H](CO)[C@@H](O)[C@H](O)[C@H]1O)C3 [Sec-O-Glucosylhamaudol] | – | – | – | – | – | – | – | 1.01% | 2.75% | 1.40% | 9.64% | 4.77% | 3.73% | 1.46% | 3.70% | 3.11% | – | – | – | – | T1/2α ([1]; rat, in vivo, po, 10 mg/kg): 1.10 ± 0.26 h; T1/2β ([1]; rat, in vivo, po, 10 mg/kg): 2.4 ± 1.2 min; weighting coefficient ωj (AUC0−∞ of single analyte / total AUC0−∞ of analytes) ([1]; rat, in vivo, po, 10 mg/kg): 0.379
